Source: patent US20070043000A1, “Immunosuppresive effects of pteridine derivatives” (priority 2003, published 2007)

Tested on: peripheral blood mononuclear cells (PBMC)
Experiment: Mixed lymphocyte reaction (MLR) test
Format: cell-based, human
Settings: Table 7; same conditions as example 26
Procedure: All reagents were dissolved in 0.5 ml dimethylsulfoxide (hereinafter referred as DMSO) and further diluted in culture medium before use for the following in vitro experiments. The commercially available culture medium consisted of RPMI-1640+10% foetal calf serum (FCS). Peripheral blood mononuclear cells (hereinafter referred as PBMC) were isolated from heparinized peripheral blood by density gradient centrifugation over Lymphoprep (Nycomed, Maorstua, Norway). Allogeneic PBMC or […]-Barr Virus-transformed human B cells [commercially available under the trade name RPMI1788 (ATCC name CCL156)] which strongly express B7-1 and B7-2 antigens were used as stimulator cells after irradiation with 30 Gy. MLR was performed in triplicate wells. After 5 days incubation at 37° C., 1 μCi [^3H]-thymidine was added to each cup. After a further 16 hours incubation, cells were harvested and counted in a β-counter. Inhibition of proliferation by a compound (drug) described in some of the previous examples was counted using the formula: [formula] wherein cpm is the thymidine count per minute. TNF-Alpha and IL-1 Beta Assays
Work on “7-chloro-3-(chlorophenyl)-1-methyl-lumazine [Example 46]” yielded an IC50 of 5.7 µM.
With CCOC(=O)CCCn1c(=O)c2nc(-c3ccc(OC)cc3)c(Br)nc2n(C)c1=O [Example 80, 7-bromo-3-(ethylbutyrate)-1-methyl-6-(4-methoxyphenyl)-lumazine] the IC50 was 5.6 µM.
Work on CCOC(=O)CCCn1c(=O)n(C)c(=O)c2nc(-c3ccccc3)c(Cl)nc21 [Example 56, 7-chloro-1-(ethyl butyrate)-3-methyl-6-phenyl-lumazine] yielded an IC50 of 4.9 µM.
In the case of Cn1c(=O)c2nc(-c3ccccc3)c(Cl)nc2n(CCc2ccccc2)c1=O [Example 60, 7-chloro-1-(2-phenylethyl)-3-methyl-6-phenyl-lumazine], the IC50 is reported as 3.5 µM.
For CCOC(=O)CCCn1c(=O)c2nc(-c3ccccc3)c(Cl)nc2n(CC)c1=O [Example 68, 7-chloro-1-ethyl-3-(ethyl butyrate)-6-phenyl-lumazine], the IC50 was 6.8 µM.
With Cn1c(=O)[nH]c(=O)c2nc(-c3ccc(C#N)cc3)c(Cl)nc21 [Example 48, 7-chloro6-(4-cyanophenyl)-1-methyl-lumazine] the IC50 was 4.3 µM.
CCOC(=O)CCCn1c(=O)c2nc(-c3ccc(OC)c(OC)c3)c(Br)nc2n(C)c1=O [Example 79, 7-bromo-6-(3,4-dimethoxyphenyl)-3-(ethylbutyrate)-1-methyl-lumazine] showed an IC50 of 4.7 µM.
COc1ccc(-c2nc3c(=O)[nH]c(=O)n(C)c3nc2Cl)cc1 [Example 40, 7-chloro-6-(4-methoxyphenyl)-1-methyl-lumazine] showed an IC50 of 3.3 µM.
Work on Cn1c(=O)[nH]c(=O)c2nc(-c3ccccc3Cl)c(Cl)nc21 [Example 45, 7-chloro-(2-chlorophenyl)-1-methyl-lumazine] yielded an IC50 of 3.9 µM.
CCOC(=O)CCCCn1c(=O)c2nc(-c3ccccc3)c(Cl)nc2n(C)c1=O [Example 72, 7-chloro-3-(ethyl pentanoate)-1-methyl-6-phenyl-lumazine] gave an IC50 of 3.5 µM.
Work on Cn1c(=O)n(CCCC(=O)OC(C)(C)C)c(=O)c2nc(-c3ccccc3)c(Cl)nc21 [Example 89, 7-chloro-3-(t-butyl butyrate)-1-methyl-6-phenyl-lumazine] yielded an IC50 of 4.2 µM.
For O=c1[nH]c(=O)n(Cc2ccccc2)c2nc(Cl)c(-c3ccccc3)nc12 [Example 53, 7-chloro-1-benzyl-6-phenyl-lumazine], the IC50 was 4.4 µM.

Tested on: TNF-alpha production by PBMC
Experiment: TNF-alpha assay, LPS-stimulated PBMC, sandwich ELISA
Format: cell-based, human
Settings: Table 7; same conditions as example 26; read-out: TNFα IC50
Procedure: (§1) All reagents were dissolved in 0.5 ml dimethylsulfoxide (hereinafter referred as DMSO) and further diluted in culture medium before use for the following in vitro experiments. The commercially available culture medium consisted of RPMI-1640+10% foetal calf serum (FCS). Peripheral blood mononuclear cells (herein referred as PBMC), in response to stimulation by lipopolysaccharide (LPS), a gram-negative bacterial endotoxin, produce various […], in particular human TNF-alpha and II-1 beta. The inhibition of the activation of PBMC can be measured by the level of suppression of the production of TNF-alpha or IL-1 beta by PBMC in response to stimulation by LPS. Such inhibition measurement was performed as follows: PBMC were isolated from heparinized peripheral blood (Buffy coat) by density gradient centrifugation. LPS is then added to the PMBC suspension in complete medium (10^6 cells/ml) at a final concentration of 1 μg/ml. The compound to be tested was added at different dilution levels, and the cells were incubated at 37° C. for 72 hours. The supernatants were collected, and TNF-alpha or II-1 beta concentrations were measured with respectively an anti-TNF antibody or an anti-IL-1 beta antibody in a sandwich ELISA. The percent inhibition was calculated as: % inhibition=(pg/ml in sample−pg/ml min.)/(pg/ml max.−pg/ml min.)−1 wherein: min.: pg/ml in culture medium without test compound, and • max.: pg/ml in culture medium+LPS without test compound.
“7-chloro-3-(chlorophenyl)-1-methyl-lumazine [Example 46]” gave an IC50 of 4.7 µM.
With CCOC(=O)CCCn1c(=O)c2nc(-c3ccc(OC)cc3)c(Br)nc2n(C)c1=O [Example 80, 7-bromo-3-(ethylbutyrate)-1-methyl-6-(4-methoxyphenyl)-lumazine] the IC50 was 2.1 µM.
Molecule CCOC(=O)CCCn1c(=O)n(C)c(=O)c2nc(-c3ccccc3)c(Cl)nc21 [Example 56, 7-chloro-1-(ethyl butyrate)-3-methyl-6-phenyl-lumazine] has an IC50 of 0.5 µM.
With Cn1c(=O)c2nc(-c3ccccc3)c(Cl)nc2n(CCc2ccccc2)c1=O [Example 60, 7-chloro-1-(2-phenylethyl)-3-methyl-6-phenyl-lumazine] the IC50 was 5.8 µM.
For CCOC(=O)CCCn1c(=O)c2nc(-c3ccccc3)c(Cl)nc2n(CC)c1=O [Example 68, 7-chloro-1-ethyl-3-(ethyl butyrate)-6-phenyl-lumazine], the IC50 was 3.1 µM.
Cn1c(=O)[nH]c(=O)c2nc(-c3ccc(C#N)cc3)c(Cl)nc21 [Example 48, 7-chloro6-(4-cyanophenyl)-1-methyl-lumazine] showed an IC50 of 2.5 µM.
Molecule CCOC(=O)CCCn1c(=O)c2nc(-c3ccc(OC)c(OC)c3)c(Br)nc2n(C)c1=O [Example 79, 7-bromo-6-(3,4-dimethoxyphenyl)-3-(ethylbutyrate)-1-methyl-lumazine] has an IC50 of 0.7 µM.
COc1ccc(-c2nc3c(=O)[nH]c(=O)n(C)c3nc2Cl)cc1 [Example 40, 7-chloro-6-(4-methoxyphenyl)-1-methyl-lumazine] gave an IC50 of 0.8 µM.
Work on Cn1c(=O)[nH]c(=O)c2nc(-c3ccccc3Cl)c(Cl)nc21 [Example 45, 7-chloro-(2-chlorophenyl)-1-methyl-lumazine] yielded an IC50 of 2.3 µM.
For CCOC(=O)CCCCn1c(=O)c2nc(-c3ccccc3)c(Cl)nc2n(C)c1=O [Example 72, 7-chloro-3-(ethyl pentanoate)-1-methyl-6-phenyl-lumazine], the IC50 was 3.4 µM.
In the case of Cn1c(=O)n(CCCC(=O)OC(C)(C)C)c(=O)c2nc(-c3ccccc3)c(Cl)nc21 [Example 89, 7-chloro-3-(t-butyl butyrate)-1-methyl-6-phenyl-lumazine], the IC50 is reported as 5.6 µM.
With O=c1[nH]c(=O)n(Cc2ccccc2)c2nc(Cl)c(-c3ccccc3)nc12 [Example 53, 7-chloro-1-benzyl-6-phenyl-lumazine] the IC50 was 4.5 µM.

Tested on: IL-1 beta production by PBMC
Experiment: IL-1 beta assay, LPS-stimulated PBMC, sandwich ELISA
Format: cell-based, human
Settings: Table 7; same conditions as example 26; read-out: IL1β IC50
Procedure: as §1
Molecule “7-chloro-3-(chlorophenyl)-1-methyl-lumazine [Example 46]” has an IC50 of 0.9 µM.
With CCOC(=O)CCCn1c(=O)c2nc(-c3ccc(OC)cc3)c(Br)nc2n(C)c1=O [Example 80, 7-bromo-3-(ethylbutyrate)-1-methyl-6-(4-methoxyphenyl)-lumazine] the IC50 was 6.4 µM.
Molecule CCOC(=O)CCCn1c(=O)n(C)c(=O)c2nc(-c3ccccc3)c(Cl)nc21 [Example 56, 7-chloro-1-(ethyl butyrate)-3-methyl-6-phenyl-lumazine] has an IC50 of 0.6 µM.
Cn1c(=O)c2nc(-c3ccccc3)c(Cl)nc2n(CCc2ccccc2)c1=O [Example 60, 7-chloro-1-(2-phenylethyl)-3-methyl-6-phenyl-lumazine] gave an IC50 of 4.1 µM.
In the case of CCOC(=O)CCCn1c(=O)c2nc(-c3ccccc3)c(Cl)nc2n(CC)c1=O [Example 68, 7-chloro-1-ethyl-3-(ethyl butyrate)-6-phenyl-lumazine], the IC50 is reported as 0.6 µM.
Molecule Cn1c(=O)[nH]c(=O)c2nc(-c3ccc(C#N)cc3)c(Cl)nc21 [Example 48, 7-chloro6-(4-cyanophenyl)-1-methyl-lumazine] has an IC50 of 0.4 µM.
CCOC(=O)CCCn1c(=O)c2nc(-c3ccc(OC)c(OC)c3)c(Br)nc2n(C)c1=O [Example 79, 7-bromo-6-(3,4-dimethoxyphenyl)-3-(ethylbutyrate)-1-methyl-lumazine] gave an IC50 of 0.2 µM.
In the case of COc1ccc(-c2nc3c(=O)[nH]c(=O)n(C)c3nc2Cl)cc1 [Example 40, 7-chloro-6-(4-methoxyphenyl)-1-methyl-lumazine], the IC50 is reported as 0.6 µM.
For Cn1c(=O)[nH]c(=O)c2nc(-c3ccccc3Cl)c(Cl)nc21 [Example 45, 7-chloro-(2-chlorophenyl)-1-methyl-lumazine], the IC50 was 0.3 µM.
Work on CCOC(=O)CCCCn1c(=O)c2nc(-c3ccccc3)c(Cl)nc2n(C)c1=O [Example 72, 7-chloro-3-(ethyl pentanoate)-1-methyl-6-phenyl-lumazine] yielded an IC50 of 0.6 µM.
Cn1c(=O)n(CCCC(=O)OC(C)(C)C)c(=O)c2nc(-c3ccccc3)c(Cl)nc21 [Example 89, 7-chloro-3-(t-butyl butyrate)-1-methyl-6-phenyl-lumazine] gave an IC50 of 2.1 µM.
Molecule O=c1[nH]c(=O)n(Cc2ccccc2)c2nc(Cl)c(-c3ccccc3)nc12 [Example 53, 7-chloro-1-benzyl-6-phenyl-lumazine] has an IC50 of 1.2 µM.

Tested on: lymphocytes
Experiment: not given
Settings: as disclosed in WO 00/45800; cited from earlier work
In the case of COc1ccc(-c2nc3c(nc2C(=O)c2ccccc2)c(=O)n(C)c(=O)n3C)cc1 [1,3-dimethyl-6-benzoyl-7-(4-methoxyphenyl)lumazine], the “result in Mixed Lymphocyte Reaction test” value is listed as “poor results”.

Tested on: murine experimental allergic encephalomyelitis
Experiment: not given
Settings: mouse, in vivo; cited from earlier work
For O=C1c2c(O)ccc(O)c2C(=O)c2c(NCCNCCO)ccc(NCCNCCO)c21 [mitoxantrone], the “heart and kidney toxicity” value is listed as “induces heart and kidney toxicity”.

Tested on: CD3
Experiment: not given
Settings: as disclosed in WO 00/45800; cited from earlier work
For COc1ccc(-c2nc3c(nc2C(=O)c2ccccc2)c(=O)n(C)c(=O)n3C)cc1 [1,3-dimethyl-6-benzoyl-7-(4-methoxyphenyl)lumazine], the “result in CD3 assay” value is listed as “poor results”.

Tested on: CD 28
Experiment: not given
Settings: as disclosed in WO 00/45800; cited from earlier work
In the case of COc1ccc(-c2nc3c(nc2C(=O)c2ccccc2)c(=O)n(C)c(=O)n3C)cc1 [1,3-dimethyl-6-benzoyl-7-(4-methoxyphenyl)lumazine], the “result in CD 28 assay” value is given as “poor results”.
